Consider one molecule from ChEMBL document CHEMBL3414453, “Design and optimization of hybrid of 2,4-diaminopyrimidine and arylthiazole scaffold as anticancer cell proliferation and migration agents” (Eur J Med Chem, 2015).

For assay [1], the system named is MDA-MB-231. The assay is described as follows: Cytotoxicity against human MDA-MB-231 cells assessed as growth inhibition after 48 hrs by sulforhodamine B assay. Type of assay: functional, cell-based. The note with it: MDA-MB-231, 48 h. For orientation: The SRB assay estimates cell density from bound dye.
Assay [2] relates to MCF7. Kind of assay: Cytotoxicity against human MCF7 cells assessed as growth inhibition after 48 hrs by sulforhodamine B assay. The class given is functional, cell-based. Particulars: MCF7, 48 h.

As usually defined, the IC50 is the concentration needed to halve the response being measured.

On to `Cc1nc(Nc2ncc(C(=O)Nc3c(C)cccc3Cl)s2)cc(N2CCN(CCO)CC2)n1` [DASATINIB], for which the 50% inhibitory concentration (IC50) was 1.12 µM in assay [1] and 8.05 µM in assay [2].
